These are literature values, as cited in US20180207149A1, “METHODS AND COMPOSITIONS FOR ENHANCING IMMUNE RESPONSE TO VACCINATION” (priority 2015, published 2018).

Structures are written as SMILES.

This series relates to immunizing influenza vaccine strains. Particulars: elderly subjects with chronic illness; topical, before intradermal trivalent influenza vaccine.

In the case of `CC(C)Cn1cnc2c(N)nc3ccccc3c21` [imiquimod], the “immunogenicity against the immunizing influenza vaccine strains” value is “expedited, augmented and prolonged the immunogenicity”.
